The target of experiment [1] is human CB1 receptor (hCB1) (Homo sapiens, UniProt P21554). The experiment can be described thus: cell-based. As to conditions: for +/− HCB1: agonist or inverse agonist at hCB1. It is filed as cell-based. In a few lines:
(§1)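 First, cells in IBMX-containing HEPES-buffered HBSS are raised to elevated cAMP with 2-8 μM NKH-477 for 30 min. Data are normalised to the forskolin and forskolin + 1 μM CP55,940 controls.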

The target of a further experiment is T1, rat CB2 receptor (rCB2) (Rattus norvegicus, UniProt Q9QZN9).
T1 sequence (Q9QZN9 1-360): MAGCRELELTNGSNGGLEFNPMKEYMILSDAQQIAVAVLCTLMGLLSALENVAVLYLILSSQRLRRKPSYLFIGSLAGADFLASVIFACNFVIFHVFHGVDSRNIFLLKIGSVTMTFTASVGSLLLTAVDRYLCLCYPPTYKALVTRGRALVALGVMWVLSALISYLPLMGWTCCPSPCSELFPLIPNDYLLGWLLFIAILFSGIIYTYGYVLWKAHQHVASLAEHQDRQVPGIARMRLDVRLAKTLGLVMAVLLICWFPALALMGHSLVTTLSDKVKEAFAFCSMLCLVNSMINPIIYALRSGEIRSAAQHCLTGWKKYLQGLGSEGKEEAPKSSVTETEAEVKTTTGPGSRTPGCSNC
The experiment can be described thus: cell-based. It is filed as cell-based. As to conditions: for +/− RCB2: agonist or inverse agonist at rCB2. The method, boiled down:
as §1

[2] abbreviates: groups >100 nM-10 μM and >10 μM, cAMP, CHO-K1 hCB1, read-out: EC50 HCB1.

Read-outs that look alike come from different tables or passages of the source.

Sequence of human CB1 receptor (hCB1) (P21554 whole entry): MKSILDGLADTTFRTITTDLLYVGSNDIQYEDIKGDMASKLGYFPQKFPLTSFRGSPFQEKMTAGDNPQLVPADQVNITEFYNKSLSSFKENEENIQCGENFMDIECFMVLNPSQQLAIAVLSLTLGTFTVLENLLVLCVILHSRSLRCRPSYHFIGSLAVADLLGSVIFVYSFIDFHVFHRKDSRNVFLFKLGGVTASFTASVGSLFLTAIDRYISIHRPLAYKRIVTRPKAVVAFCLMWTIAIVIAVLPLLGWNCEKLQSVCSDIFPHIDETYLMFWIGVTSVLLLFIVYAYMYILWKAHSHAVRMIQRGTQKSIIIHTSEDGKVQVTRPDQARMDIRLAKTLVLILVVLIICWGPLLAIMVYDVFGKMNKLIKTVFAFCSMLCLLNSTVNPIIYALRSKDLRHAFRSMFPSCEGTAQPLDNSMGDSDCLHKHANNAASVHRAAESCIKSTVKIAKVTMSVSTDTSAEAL

As for `CNC(=O)[C@@H](NC(=O)c1nc(C2=CCC(C)CC2)n2c1CN(C)CCC2)C(C)(C)C` (stereo partly drawn) [Compound 449, N-((S)-3,3-dimethyl-1-(methylamino)-1-oxobutan-2-yl)-8-methyl-3-(4-methylcyclohex-1-enyl)-6,7,8,9-tetrahydro-5H-imidazo[1,5-a][1,4]diazepine-1-carboxamide], in experiment [1], the “+/− HCB1” value is listed as “+”. The “+/− RCB2” value at rat CB2 receptor (rCB2) was “+”.

`CNC(=O)[C@@H](NC(=O)c1nc(-c2cc(C)ccc2F)n2c1CN(C)CCC2)C(C)(C)C` [Compound 362, (S)-N-(3,3-dimethyl-1-(methylamino)-1-oxobutan-2-yl)-3-(2-fluoro-5-methylphenyl)-8-methyl-6,7,8,9-tetrahydro-5H-imidazo[1,5-a][1,4]diazepine-1-carboxamide] came in with a concentration giving a half-maximal response (EC50) in experiment [1] of more than 10000 nM. At rat CB2 receptor (rCB2), the “+/− RCB2” value is reported as “+”.

Consider `CN1CCn2c(-c3ccc(Cl)cc3F)nc(C(=O)N3CCC(n4c(=O)[nH]c5cc(Cl)ccc54)CC3)c2C1` [Compound 212, 5-chloro-1-(1-(3-(4-chloro-2-fluorophenyl)-7-methyl-5,6,7,8-tetrahydroimidazo[1,5-a]pyrazine-1-carbonyl)piperidin-4-yl)-1H-benzo[d]imidazol-2(3H)-one], for which the EC50 in experiment [1] (setting [2]) is more than 10000 nM. The “+/− RCB2” value on rat CB2 receptor (rCB2) was “−”.

Compound `CNC(=O)[C@@H](NC(=O)c1nc(-c2ccccc2)n2c1CN(C(=O)C(C)C)CC2)C(C)(C)C` [Compound 191, (S)-N-(3,3-dimethyl-1-(methylamino)-1-oxobutan-2-yl)-7-isobutyryl-3-phenyl-5,6,7,8-tetrahydroimidazo[1,5-a]pyrazine-1-carboxamide] showed a concentration for a half-maximal effect (EC50) in experiment [1] of more than 10000 nM. The “+/− RCB2” value at rat CB2 receptor (rCB2) is reported as “−”.

Consider `CNC(=O)[C@H](NC(=O)c1nc(-c2ccccc2)n2c1CN(C)CC2)C(C)(C)C` [Compound 302, (R)-N-(3,3-dimethyl-1-(methylamino)-1-oxobutan-2-yl)-7-methyl-3-phenyl-5,6,7,8-tetrahydroimidazo[1,5-a]pyrazine-1-carboxamide], for which the EC50 (in experiment [1]; on rat CB2 receptor (rCB2)) was more than 10000 nM each time.

With `O=C(c1nc(-c2ccccc2)n2c1CNCC2)N1CCOCC1` [Compound 25, morpholino(3-phenyl-5,6,7,8-tetrahydroimidazo[1,5-a]pyrazin-1-yl)methanone], the EC50 in experiment [1] (setting [2]) was more than 10000 nM; on rat CB2 receptor (rCB2) (groups >100 nM-10 μM and >10 μM, cAMP, CHO-K1 rCB2, read-out: EC50 RCB2), more than 10000 nM.

In experiment [1], `CC12CCC(C1)C(C)(C)C2NC(=O)c1nc(-c2ccccc2)n2c1CN(CCO)CC2` (stereo not drawn) [Compound 143, 7-(2-hydroxyethyl)-3-phenyl-N-(1,3,3-trimethylbicyclo[2.2.1]heptan-2-yl)-5,6,7,8-tetrahydroimidazo[1,5-a]pyrazine-1-carboxamide] yielded an EC50 of more than 10000 nM. Moreover, the “+/− RCB2” value on rat CB2 receptor (rCB2) was “−”.

Turning to `CNC(=O)[C@@H](NC(=O)c1nc(/C=C/CN2CCOCC2)n2c1CN(C)CCC2)C(C)(C)C` [Compound 509, (S,E)-N-(3,3-dimethyl-1-(methylamino)-1-oxobutan-2-yl)-8-methyl-3-(3-morpholinoprop-1-enyl)-6,7,8,9-tetrahydro-5H-imidazo[1,5-a][1,4]diazepine-1-carboxamide], the half-maximal effective concentration (EC50) (in experiment [1]; on rat CB2 receptor (rCB2)) was more than 10000 nM each time.

As for `COC(=O)N1CCn2c(-c3ccccc3)nc(C(=O)N[C@@H](C)c3ccccc3)c2C1` [Compound 179, (S)-methyl 3-phenyl-1-(1-phenylethylcarbamoyl)-5,6-dihydroimidazo[1,5-a]pyrazine-7(8H)-carboxylate], in experiment [1], the half-maximal effective concentration (EC50) is more than 10000 nM. Besides, at rat CB2 receptor (rCB2), the “+/− RCB2” value is reported as “−”.

For the compound `CNC(=O)[C@@H](NC(=O)c1nc(-c2cc(Cl)c(F)cc2F)n2c1CN(C)CCC2)C1CCCCC1` [Compound 542, (S)-3-(5-chloro-2,4-difluorophenyl)-N-(1-cyclohexyl-2-(methylamino)-2-oxoethyl)-8-mehtyl-6,7,8,9-tetrahydro-5H-imidazo[1,5-a][1,4]diazepine-1-carboxamide], the “+/− HCB1” value in experiment [1] is recorded as “+”. In addition, the “+/− RCB2” value on rat CB2 receptor (rCB2) is given as “+”.

Take `CNC(=O)[C@H](CC(C)(C)C)NC(=O)c1nc(-c2cc(Cl)ccc2F)n2c1CN(C)CCC2` [Compound 545, (S)-3-(5-chloro-2-fluorophenyl)-N-(4,4-dimethyl-1-(methylamino)-1-oxopentan-2-yl)-8-methyl-6,7,8,9-tetrahydro-5H-imidazo[1,5-a][1,4]diazepine-1-carboxamide]: in experiment [1], the “+/− HCB1” value was “+”. Moreover, the “+/− RCB2” value at rat CB2 receptor (rCB2) is listed as “+”.

With `CNC(=O)[C@@H](NC(=O)c1nc(C(C)C(F)(F)F)n2c1CN(C)CCC2)C(C)(C)C` (stereo partly drawn) [Compound 505, N-((S)-3,3-dimethyl-1-(methylamino)-1-oxobutan-2-yl)-8-methyl-3-(1,1,1-trifluoropropan-2-yl)-6,7,8,9-tetrahydro-5H-imidazo[1,5-a][1,4]diazepine-1-carboxamide], in experiment [1], the “+/− HCB1” value is reported as “+”. On rat CB2 receptor (rCB2), the “+/− RCB2” value was “+”.

For the compound `CN1CCn2c(-c3ccccc3)nc(C(=O)NCC3CCOCC3)c2C1` [Compound 236, 7-methyl-3-phenyl-N-((tetrahydro-2H-pyran-4-yl)methyl)-5,6,7,8-tetrahydroimidazo[1,5-a]pyrazine-1-carboxamide], the EC50 (in experiment [1]; on rat CB2 receptor (rCB2)) was more than 10000 nM in each case.

For the compound `CN1CCCn2c(-c3ccc(F)cc3F)nc(C(=O)N[C@H](C(=O)N(C)C)C(C)(C)C)c2C1` [Compound 563, (S)-3-(2,4-difluorophenyl)-N-(1-(dimethylamino)-3,3-dimethyl-1-oxobutan-2-yl)-8-methyl-6,7,8,9-tetrahydro-5H-imidazo[1,5-a][1,4]diazepine-1-carboxamide], the “+/− HCB1” value in experiment [1] is “+”. The “+/− RCB2” value at rat CB2 receptor (rCB2) is “+”.

With `CNC(=O)[C@@H](NC(=O)c1nc(-c2cccc(Cl)c2F)n2c1CN(C)CCC2)C(C)(C)C` [Compound 356, (S)-3-(3-chloro-2-fluorophenyl)-N-(3,3-dimethyl-1-(methylamino)-1-oxobutan-2-yl)-8-methyl-6,7,8,9-tetrahydro-5H-imidazo[1,5-a][1,4]diazepine-1-carboxamide], the EC50 (in experiment [1]; at rat CB2 receptor (rCB2)) was more than 10000 nM each time.

In the case of `CNC(=O)[C@@H](NC(=O)c1nc(-c2cc(F)c(F)cc2F)n2c1CN(C)CCC2)C(C)(C)C` [Compound 371, (S)-N-(3,3-dimethyl-1-(methylamino)-1-oxobutan-2-yl)-8-methyl-3-(2,4,5-trifluorophenyl)-6,7,8,9-tetrahydro-5H-imidazo[1,5-a][1,4]diazepine-1-carboxamide], the “+/− HCB1” value in experiment [1] was “+”. Also, the “+/− RCB2” value on rat CB2 receptor (rCB2) is “+”.

For `CNC(=O)[C@@H](NC(=O)c1nc(CCCN2CCCCC2)n2c1CN(C)CC2)C(C)(C)C` [Compound 307, (S)-N-(3,3-dimethyl-1-(methylamino)-1-oxobutan-2-yl)-7-methyl-3-(3-(piperidin-1-yl)propyl)-5,6,7,8-tetrahydroimidazo[1,5-a]pyrazine-1-carboxamide], the EC50 in experiment [1] is more than 10000 nM. Besides, the “+/− RCB2” value at rat CB2 receptor (rCB2) was “+”.

For the compound `O=C(NCC1CCOCC1)c1nc(-c2ccccc2)n2c1CN(CCO)CC2` [Compound 169, 7-(2-hydroxyethyl)-3-phenyl-N-((tetrahydro-2H-pyran-4-yl)methyl)-5,6,7,8-tetrahydroimidazo[1,5-a]pyrazine-1-carboxamide], the EC50 in experiment [1] (setting [2]) was more than 10000 nM. In addition, at rat CB2 receptor (rCB2), the “+/− RCB2” value is recorded as “−”.

These data come from patent publication US7517874B2 (priority 2007, dated 2009).
